Experimental data from patent US12622913B2, “Folate salts for medical use” (APROFOL AG, priority 2018, dated 2026).

Experiments:
[1] = Solubility determination of selected folate salts in solvents; assay type: physicochemical; conditions: mass-% (m/m), 20° C.; for Solubility in DMSO: solvent DMSO; for Solubility in EtOH: solvent EtOH; for Solubility in MeOH: solvent MeOH; for Solubility in Glycerine: solvent glycerine; for Solubility in i-PrOH: solvent i-PrOH; for Solubility in n-PrOH: solvent n-PrOH
Experimental: Solubility determination of selected folate salts was in general performed as follows:
A quantity of the salt corresponding to the expected solubility (between 1-100 mg) was provided and mixed with increments of the respective solvent until a solution was formed.

[2] = cited from earlier work
[3] = glycerine; previous data confirmed by the test; cited from earlier work

Compound | Solubility in DMSO [1] [%] | Solubility in EtOH [1] [%] | Solubility in MeOH [1] | Solubility in Glycerine [1] [%] | Solubility in i-PrOH [1] [%] | Solubility in n-PrOH [1] [%] | Solubility in dilute acid or dilute alkali ([2]; dilute acid or dilute alkali) | Solubility in organic solvents ([2]; organic solvents) | Solubility in water ([2]; water at 25° C.) | Solubility of calcium salt, previous data [3]
5-Formyl-(6S)-tetrahydrofolic acid di acetylcholine salt [FTHF di acetylcholine] | 0.25 | 55.80 | 55.80% | 24.10 | 0.50 | 55.90 |  |  |  | 
5-Methyl-(6S)-tetrahydrofolic acid di acetylcholine salt [MTHF di acetylcholine] | 47.62 | 50.00 | >>50% | 24.10 | 50.00 | 50.00 |  |  |  | 
5-methyl-tetrahydrofolic acid glucosamine salt [5-MTHF-glucosamine] |  |  |  |  |  |  | soluble | insoluble | very soluble | 
CN1c2c([nH]c(N)nc2=O)NC[C@@H]1CNc1ccc(C(=O)N[C@@H](CCC(=O)[O-])C(=O)[O-])cc1.[Ca+2] [calcium salt of 5-methyl-(6S)-tetrahydrofolic acid] |  |  |  |  |  |  |  |  |  | approximately 1%
